Reference: patent US20240398775A1, “PHARMACEUTICAL COMPOSITION FOR USE IN TREATING COGNITIVE DECLINE OR FOR USE IN TREATING OVERWEIGHT OR OBESITY” (University of the Ryukyus, priority 2021, published 2024)

Experiments:
Type in all cases: in vivo, mouse
[1] = system: GluA1; experiment: BS3 crosslinking assay / Western blot of GluA1 subunit; conditions: HFD-fed mice treated with PER, n=4; HFD gave 3-fold increase vs CD
Procedure: Crosslinking using the BS^3 procedure carried out here was carried out based on previously described methods (60). Hippocampal slices of 17 to 18 week old male C57BL/6J background mice (CD, HFD, and HFD with PER treatment) or 12 to 13 week old ob/ob mice (ob/ob, and ob/ob with PER treatment) were prepared as previously reported (56, 57). Hippocampal slices were prepared and collected, and then CA1, CA2, CA3, DG, and EC regions were separated from the hippocampal slices using a dissection knife. […] The total protein concentration of the lysate was measured using the Lowry method (61). […] BS^3 samples were analyzed by SDS-PAGE directly without purification, and surface and intracellular bands were measured in the same lane, thus no normalization was required and sample throughput was improved. […] Membranes were incubated with HRP-labeled anti-rabbit IgG (1:3,000, Cell Signaling Technology, Danvers, MA, USA) for 30 min and extensively washed again with TBS-T. After soaking the membrane in the chemiluminescence detection substrate Chemi-Lumi One (Nacalai Tesque, Tokyo, Japan) for 1 min, luminescence was detected using a LuminoGraph1 imaging system (Atto, Tokyo, Japan). The surface and intracellular bands of each lane were analyzed using a CS Analyzer (Atto, Tokyo, Japan). […]

[2] = system: Thy-1+-eYFP neuronal cells; experiment: Quantification of Thy1-eYFP neurons (CLARITY); conditions: HFD mice treated with PER, p<0.001, n=4
Text: Coronal sections of mouse brains from Bregma-0.94 mm to Bregma-4.04 mm (5 mm wide, including the entire hippocampus from dorsal to ventral, medial to lateral) were fixed with 4% paraformaldehyde for 2 days, and then stained with the Golgi Cox staining system (FD Rapid GolgiStain™ Kit, MD 21041, USA). The impregnated tissues were cut into 100 μm sections and counterstained with crystal violet, and the total number of 15 μm spines on the apical dendrites of CA1 and DG and the percentage of morphologic spines (thin, stubby, mushroom) were examined using an Axio Observer Z1 (Carl Zeiss, Germany). Another set of paraformaldehyde-fixed 5 mm wide coronal sections of the brain, including the entire hippocampus, were processed using the passive CLARITY technique (PACT) (62) and examined through Lightsheet Z.1 (Carl Zeiss, Germany) using a 10× clear objective lens, and 3D images of Thy1-YFPH transgenic mice (the Jackson Laboratory, stock number: 003709, strain name: B6. Cg-Tg. (Thy1-YFP) 16Jrs/J) (63, 64), HFD-fed mice, and whole hippocampus of the HFD-fed mice with PER treatment. were acquired respectively. Maximum intensity projection images were acquired along the Z dimension, time dimension, and channel dimension to create an output image with the pixel containing the maximum value for all images in the stack at a particular pixel position. […]

[3] = system: NL(−/−) mice; experiment: Bicculine-induced epileptiform reactions in NL(−/−) mice; conditions: perampanel administration
Text: Epilepsy occurs more frequently in AD patients than in the control population (Pascal E 2012), and the incidence of epilepsy increases to 7 to 21% (Amatniek et al., 2006; Hauser et al., 1986; Mendez and Lim, 2003) in sporadic AD patients and 30% in early-onset familial AD (FAD) (Palop and Mucke, 2009; Larner and Doran, 2006). Early latent hippocampal hyperexcitability was detected in AD patients (Lam A D et al., Nat Med 2017). […] In particular, in NL-G-F(−/−) mice (15 to 17 weeks old), significant enhancement of epileptiform reactions in the CA1 and CA2 regions was confirmed by Bicculine (BIC) (refer to FIG. 32). […] In an animal model of AD in which amyloid β is accumulated, it has been reported that an epileptiform reaction is enhanced (Busche, 2008; 2012). Also in this experiment, epileptic induction by bicrine was enhanced in both NL(−/−) mice and NL-G-F(−/−) (15 to 17 weeks old (W)) as compared with control mice.

## N#Cc1ccccc1-c1cc(-c2ccccn2)cn(-c2ccccc2)c1=O [PER, 3-(2-cyanophenyl)-5-(2-pyridyl)-1-phenyl-1,2-dihydropyridine-2-one]
[1]
  GluA1 in CA3 (BS3 crosslinking): reduced GluA1 to basal levels
[2]
  number of Thy-1+-eYFP neuronal cells in CA3: significantly restored
[3]
  epileptiform reactions induced by bicculine: almost completely abolished
